Our source for the Ki and Kd values is US8859534B2, “2-carboxamide-7-piperazinyl-benzofuran derivatives” (AstraZeneca AB, priority 2009, dated 2014).

One assay has as its target 5-HT1B receptor (Homo sapiens (Human), UniProt P28222). The experiment in a line: 5-HT1B receptor competition binding assay (SPA, [3H]-GR125743). The following applies: for pKi: membranes of CHO cells expressing 5-HT1B receptors, radioligand [3H]-GR125743 0.15-0.2 nM. An excerpt:
(§1) Assays that were used to measure affinity of the compounds of the present invention for 5-HT1A and 5-HT1B receptors are described in J. Recept Signal Transduct. Res. 22:483-495 (2002) and Naunyn-Schmiedeberg's Arch Pharmacol. 356:328-334 (1997) and incorporated by reference herein. These assays were be used with some modifications:
(§2) For the binding assay stably transfected chinese hamster ovary (CHO) cell lines expressing 5-HT1A receptors or 5-HT1B receptors were harvested by centrifugation at 300×g for 10 min and resuspended in 10 mM Tris-HCl, 5 mM EDTA at pH 7.4. The cells were pooled, recentrifuged and resuspended before homogenisation using a Dounce homogeniser (“type B”). Cell membranes were centrifuged at 48 000×g for 10 min and then resuspended in harvesting buffer using an Ultra-Turrax T8 (IKA Labortechnik, Germany), aliquots were stored frozen in −70° C.
Frozen membrane preparations were thawed, homogenized with an Ultra-Turrax and mixed with SPA beads (YSI coated WGA, GE Healthcare/Amersham, Buckinghamshire, UK) in assay buffer containing 50 mM Tris-Base, 4 mM MgCl2, 4 mM CaCl2 (only 5-HT1B), 1 mM EDTA, and adjusted to pH 7.4 with HCl. The beads/membrane solution, final concentration 100 pM receptors for 5-HT1A, 300 pM receptors for 5-HT1B and 0.5 mg SPA beads/well, was pre-incubated in room temperature with stirring for 30-60 min. […] Five (log interval, 10 μM to 1 nM, final concentration) or ten serial dilutions (½-log interval, 10 μM to 0.32 nM, final concentration) of compounds were prepared in DMSO from 10 mM stock solutions. The binding assays were performed in 384-well plates in a final volume of 90 μL/well with the following additions: 9 μL binding buffer; 1 μL compound/DMSO/nonspecific; 20 μL radioligand; and 60 μL beads/membrane mixture. Non-specific binding was defined by using 10 μM WAY100635 for 5-HT1A and 10 μM Methiothepin for 5-HT1B. The assay plates were incubated for 4 hours where after the plates are counted in a Wallac 1450 Microbeta Trilux counter (PerkinElmer LifeScience, US) or similar. Data from the experiments were analyzed using a four parameter logistic equation as follows: Y=Bottom+(Top-Bottom)/1+10^(LogEC50-X)nH.
• Jerning E., Rosqvist S., Mohell N. (2002) NAD-299 antagonises 5-HT-stimulated and Spiperone-inhibited [^35S]GTPγS binding in cloned 5-HT1A receptors. J Recept Signal Transduct Res 22:483-495. • Doménech T., Beleta J., Palacios J. M. (1997) Characterization of human serotonin 1D and 1B receptors using [^3H]-GR-125743, a novel radiolabelled serotonin 5HT1D/1B receptor antagonist. Naunyn-Schmiedeberg's Arch Pharmacol 356:328-334.

Another assay deals with 5-HT1A receptor (Homo sapiens (Human), UniProt P08908). The experiment in a line: 5-HT1A receptor competition binding assay (SPA, [3H]-8-OH-DPAT). The following applies: membranes of CHO cells expressing 5-HT1A receptors; radioligand [3H]-8-OH-DPAT 0.15-0.2 nM.
Source text: as §1, §2
Frozen membrane preparations were thawed, homogenized with an Ultra-Turrax and mixed with SPA beads (YSI coated WGA, GE Healthcare/Amersham, Buckinghamshire, UK) in assay buffer containing 50 mM Tris-Base, 4 mM MgCl2, 4 mM CaCl2 (only 5-HT1B), 1 mM EDTA, and adjusted to pH 7.4 with HCl. […] The binding assays were performed in 384-well plates in a final volume of 90 μL/well with the following additions: 9 μL binding buffer; 1 μL compound/DMSO/nonspecific; 20 μL radioligand; and 60 μL beads/membrane mixture. Non-specific binding was defined by using 10 μM WAY100635 for 5-HT1A and 10 μM Methiothepin for 5-HT1B. The assay plates were incubated for 4 hours where after the plates are counted in a Wallac 1450 Microbeta Trilux counter (PerkinElmer LifeScience, US) or similar. Data from the experiments were analyzed using a four parameter logistic equation as follows: Y=Bottom+(Top-Bottom)/1+10^(LogEC50-X)nH.

pKd, pKi: −log10 of the molar value.

Sequence of 5-HT1B receptor (P28222 whole entry): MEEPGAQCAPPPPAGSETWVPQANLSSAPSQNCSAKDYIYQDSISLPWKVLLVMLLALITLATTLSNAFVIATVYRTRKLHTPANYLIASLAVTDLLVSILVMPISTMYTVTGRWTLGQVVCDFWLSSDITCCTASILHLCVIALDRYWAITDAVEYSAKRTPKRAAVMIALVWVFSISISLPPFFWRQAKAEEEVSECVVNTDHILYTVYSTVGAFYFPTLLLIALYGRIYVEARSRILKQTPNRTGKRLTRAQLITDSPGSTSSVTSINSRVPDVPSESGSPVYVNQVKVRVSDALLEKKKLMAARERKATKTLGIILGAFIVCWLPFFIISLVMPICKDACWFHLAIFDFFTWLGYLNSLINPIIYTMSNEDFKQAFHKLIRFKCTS
Sequence of 5-HT1A receptor (P08908 whole entry): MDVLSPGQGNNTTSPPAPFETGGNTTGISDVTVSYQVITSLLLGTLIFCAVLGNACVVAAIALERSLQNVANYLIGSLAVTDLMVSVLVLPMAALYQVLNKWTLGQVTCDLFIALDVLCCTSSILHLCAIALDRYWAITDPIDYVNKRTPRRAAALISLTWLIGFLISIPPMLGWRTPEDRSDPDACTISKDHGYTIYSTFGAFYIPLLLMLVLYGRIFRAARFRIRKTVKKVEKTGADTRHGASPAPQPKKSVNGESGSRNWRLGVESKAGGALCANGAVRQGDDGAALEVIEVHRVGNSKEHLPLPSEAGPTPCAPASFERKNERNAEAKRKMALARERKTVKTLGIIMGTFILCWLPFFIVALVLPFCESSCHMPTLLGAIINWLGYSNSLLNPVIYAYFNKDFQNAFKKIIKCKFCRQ

Usually pKi stands for −log10 of the Ki, conventionally taken in molar units. As for `O=C(Nc1ccc(N2CCOCC2)cc1)c1cc2cccc(N3CCN(CCc4ccccn4)CC3)c2o1` [Example 2, N-(4-Morpholinophenyl)-7-(4-(2-(pyridin-2-yl)ethyl)piperazin-1-yl)benzofuran-2-carboxamide], the negative logarithm of the Ki (pKi) at 5-HT1B receptor is 8.96; at 5-HT1A receptor, 8.89.
In the same order, the values of `CN(C)C(=O)c1cc2c(Br)ccc(N3CCN(CCc4ccccn4)CC3)c2o1` [Example 53, 4-Bromo-N,N-dimethyl-7-(4-(2-(pyridin-2-yl)ethyl)piperazin-1-yl)benzofuran-2-carboxamide] are 7.96 and 9.46.
The corresponding values for `COc1cccc(CCNC(=O)c2cc3cccc(N4CCN(CCc5ccccn5)CC4)c3o2)c1` [Example 18, N-(3-Methoxyphenethyl)-7-(4-(2-(pyridin-2-yl)ethyl)piperazin-1-yl)benzofuran-2-carboxamide] are 9.15 and 8.89.
Turning to `O=C(NC1CCN(c2ncccc2Cl)CC1)c1cc2cccc(N3CCN(CCc4ccccn4)CC3)c2o1` [Example 8, N-(1-(3-Chloropyridin-2-yl)piperidin-4-yl)-7-(4-(2-(pyridin-2-yl)ethyl)piperazin-1-yl)benzofuran-2-carboxamide], the values for the pKi at 5-HT1B receptor and at 5-HT1A receptor were 9.55 and 9.54, respectively.
As to `Cc1ccc(C(C)NC(=O)c2cc3cccc(N4CCN(CCc5ccccn5)CC4)c3o2)cn1` (stereo not drawn) [Example 33, N-(1-(6-Methylpyridin-3-yl)ethyl)-7-(4-(2-(pyridin-2-yl)ethyl)piperazin-1-yl)benzofuran-2-carboxamide], the pKi is 7.36 at 5-HT1B receptor and 8.68 at 5-HT1A receptor.
The corresponding values for `N#Cc1ccc(CNC(=O)c2cc3cccc(N4CCN(CCc5ccccn5)CC4)c3o2)cn1` [Example 20, N-((6-Cyanopyridin-3-yl)methyl)-7-(4-(2-(pyridin-2-yl)ethyl)piperazin-1-yl)benzofuran-2-carboxamide] are 8.12 and 8.96.
The corresponding values for `O=C(c1cc2cccc(N3CCN(CCc4ccccn4)CC3)c2o1)N1CCCC1` [Example 16, (7-(4-(2-(Pyridin-2-yl)ethyl)piperazin-1-yl)benzofuran-2-yl)(pyrrolidin-1-yl)methanone] are 8.36 and 9.11.
In the same order, the values of `Cc1ncc(CNC(=O)c2cc3cccc(N4CCN(CCc5ccccn5)CC4)c3o2)cn1` [Example 34, N-((2-Methylpyrimidin-5-yl)methyl)-7-(4-(2-(pyridin-2-yl)ethyl)piperazin-1-yl)benzofuran-2-carboxamide] are 7.42 and 8.42.
For the compound `COc1cccnc1N1CCC(NC(=O)c2cc3cccc(N4CCN(CCc5ccccn5)CC4)c3o2)CC1` [Example 24, N-(1-(3-Methoxypyridin-2-yl)piperidin-4-yl)-7-(4-(2-(pyridin-2-yl)ethyl)piperazin-1-yl)benzofuran-2-carboxamide], the negative logarithm of the Ki (pKi) at 5-HT1B receptor is 9.25; at 5-HT1A receptor, 9.38.
In the same order, the values of `O=C(NC1CC(F)(F)C1)c1cc2cccc(N3CCN(CCc4ccccn4)CC3)c2o1` [Example 14, N-(3,3-Difluorocyclobutyl)-7-(4-(2-(pyridin-2-yl)ethyl)piperazin-1-yl)benzofuran-2-carboxamide] are 7.38 and 8.48.
The corresponding values for `CN(C)C(=O)c1cc2cccc(N3CCN(CCc4ccccn4)CC3)c2o1` [Example 11, N,N-Dimethyl-7-(4-(2-(pyridin-2-yl)ethyl)piperazin-1-yl)benzofuran-2-carboxamide] are 8.68 and 9.80.
At 5-HT1A receptor, `N#Cc1ccc(CNC(=O)c2cc3cccc(N4CCN(CCc5ccccn5)CC4)c3o2)cc1` [Example 9, N-(4-Cyanobenzyl)-7-(4-(2-(pyridin-2-yl)ethyl)piperazin-1-yl)benzofuran-2-carboxamide] showed a pKi of 9.36.
For the compound `COc1cccc(CCN2CCN(c3cccc4cc(C(=O)N(C)C)oc34)CC2)n1` [Example 46, 7-(4-(2-(6-Methoxypyridin-2-yl)ethyl)piperazin-1-yl)-N,N-dimethylbenzofuran-2-carboxamide], the results for the pKi at 5-HT1B receptor and on 5-HT1A receptor were 8.85 and 8.89, respectively.
In the case of `COc1cc(N2CCN(CCc3ccccn3)CC2)c2oc(C(=O)N(C)C)cc2c1` [Example 52, 5-Methoxy-N,N-dimethyl-7-(4-(2-(pyridin-2-yl)ethyl)piperazin-1-yl)benzofuran-2-carboxamide], the negative-log Ki (pKi) was 6.85 at 5-HT1B receptor and 8.55 on 5-HT1A receptor.
In the same order, the values of `Cn1cnc(CNC(=O)c2cc3cccc(N4CCN(CCc5ccccn5)CC4)c3o2)c1` [Example 5, N-((1-Methyl-1H-imidazol-4-yl)methyl)-7-(4-(2-(pyridin-2-yl)ethyl)piperazin-1-yl)benzofuran-2-carboxamide] are 7.43 and 8.66.
The corresponding values for `O=C(NC1(c2ccccn2)CC1)c1cc2cccc(N3CCN(CCc4ccccn4)CC3)c2o1` [Example 27, N-(1-(Pyridin-2-yl)cyclopropyl)-7-(4-(2-(pyridin-2-yl)ethyl)piperazin-1-yl)benzofuran-2-carboxamide] are 7.46 and 8.64.
Consider `O=C(NC1CC1)c1cc2cccc(N3CCN(CCc4ccccn4)CC3)c2o1` [Example 13, N-Cyclopropyl-7-(4-(2-(pyridin-2-yl)ethyl)piperazin-1-yl)benzofuran-2-carboxamide], for which the pKi on 5-HT1B receptor is 8.19.
The same measure, in the same setting: the figure for `COc1ccnc(CCN2CCN(c3cccc4cc(C(=O)N(C)C)oc34)CC2)c1` [Example 39, 7-(4-(2-(4-Methoxypyridin-2-yl)ethyl)piperazin-1-yl)-N,N-dimethylbenzofuran-2-carboxamide] is 7.18.
Regarding `COc1cccnc1CCN1CCN(c2cccc3cc(C(=O)N(C)C)oc23)CC1` [Example 48, 7-(4-(2-(3-Methoxy-2-pyridyl)ethyl)piperazin-1-yl)-N,N-dimethylbenzofuran-2-carboxamide], the pKi at 5-HT1A receptor was 9.80.
Take `CC(=O)N1CCC(NC(=O)c2cc3cccc(N4CCN(CCc5ccccn5)CC4)c3o2)CC1` [Example 6, N-(1-Acetylpiperidin-4-yl)-7-(4-(2-(pyridin-2-yl)ethyl)piperazin-1-yl)benzofuran-2-carboxamide]: the pKi on 5-HT1B receptor was 7.09.
Take `CN(C)C(=O)c1cc2cccc(N3CCN(CCc4cc(C#N)ccn4)CC3)c2o1` [Example 41, 7-(4-(2-(4-Cyanopyridin-2-yl)ethyl)piperazin-1-yl)-N,N-dimethylbenzofuran-2-carboxamide]: on 5-HT1B receptor, the pKi was 7.14.
Still for that read-out and setting: for `CC(=O)N1CCc2cc(CCN3CCN(c4cccc5cc(C(=O)N6CCC6)oc45)CC3)ccc21` [Example 49, 1-(5-(2-(4-(2-(Azetidine-1-carbonyl)benzofuran-7-yl)piperazin-1-yl)ethyl)indolin-1-yl)ethanone] the value was 7.85.
As to `COc1ccc(NC(=O)c2ccc(-c3ccncc3)c(C)c2)cc1N1CCN(C)CC1` [[^3H]-GR125743, reference compound], the pKd on 5-HT1B receptor (5-HT1B receptor, Kd used in the calculation of Ki, read-out: Kd of radioligand, saturation binding studies) is 9.06.
In the case of `Cn1cnc(CCNC(=O)c2cc3cccc(N4CCN(CCc5ccccn5)CC4)c3o2)c1` [Example 30, N-(2-(1-Methyl-1H-imidazol-4-yl)ethyl)-7-(4-(2-(pyridin-2-yl)ethyl)piperazin-1-yl)benzofuran-2-carboxamide], the pKi at 5-HT1B receptor is 7.77.
